In US20200157156A1, “GRATELOUPIA CHIANGII-DERIVED LECTIN AND LECTIN GENE CODING FOR THE SAME” (priority 2018, published 2020):
Where a name gives a salt, the structure may show the parent alone.

Experiments:
[1] = test system: herpes simplex virus 1 (HSV1) (F); assay: Antiviral effect, CPE inhibition / MTT, HSV1; type: cell-based
Procedure: (§1) The antiviral effect was determined through cell viability, and the like using a virus-induced cytopathic effect (CPE) inhibition method and an MTT method.

[2] = test system: herpes simplex virus 2 (HSV2) (MS); assay: Antiviral effect, CPE inhibition / MTT, HSV2; type: cell-based
Procedure: as §1

in vitro = assay: in vitro
Procedure: as §1

GCL [3] = assay: Hemagglutination inhibition test (carbohydrate specificity of GCL); type: cell-based, Grateloupia chiangii; settings: 4 haemagglutination activity units of GCL, equine red blood cells
Procedure: The carbohydrate specificity was determined by means of a hemagglutination inhibition test. Proteins and carbohydrates used for the inhibition test included D-glucose (D-Glc), D-mannose (D-Man), D-galactose (D-Gal), N-acetyl-D-glucosamine (GlcNAc), N-acetyl-D-galactosamine (GalNAc), D-fucose (F-Fuc), fructose (Fru), lactose (Lac), and fetuin. A sample (25 μL) having 4 haemagglutination activity units was mixed with each of the carbohydrates (25 μL), and 25 μL of a mixture was removed from each well. An equivalent amount of a 4% suspension of equine red blood cells was added to, and mixed with the sample. The plate was kept at room temperature for 30 minutes, and then confirmed for inhibitory activities.

GCL [4] = assay: Glycan microarray (glycan-300 array) binding to GCL; set-up: species or system Grateloupia chiangii; settings: 50 μg/mL biotinylated lectin; for RFU (Normalized) GCL: Cy3-streptavidin detection
Procedure: A glycan microarray was performed by Ebiogen (Korea). A glycan array kit was purchased from RayBioTech (Norcross, Ga., USA). An array consisting of 300 synthetic glycans printed in quadruplicate on a glass slide was used. Label-based detection was performed according to the manufacturer's protocol. 50 μg/mL of biotinylated lectin was put into wells, and gently shaken for 3 hours or more. The glass slide was washed with 1× washing buffers I and II provided in the kit. The glycan-lectin binding was detected by reacting with Cy3 equivalent dye-conjugated streptavidin at room temperature for an hour. Signals for Cy3 detection were visualized using a microarray laser scanner (Genfix 4100A, Molecular Devices, Sunnyvale, Calif., USA) (excitation at 554 nm, and emission at 568 nm). Data extraction was performed using microarray assay software Genfix. The […] array data was analyzed using RayBioTech (RayBioTech) software.
To determine the carbohydrate specificity, a glycan microarray was carried out using a glycan-300 array kit in which 300 different carbohydrates were immobilized. Referring to FIGS. 6 and 7 and Table 2 below, 18 of the 300 tested carbohydrates produced at least 1,000 positive signals. GCL produced weak binding signals to the monosaccharides, that is, β-Glc-sp, β-Gal-sp, and α-Man-sp. Normalized signal intensities were 2,579, 2,269, and 2,194, respectively. Also, the GCL was able to bind to maltotetraose-β-Sp1 with a signal intensity of 2,705. […] It was that high-mannan structures, that is, Man-α-1,6-(Man-α-1,3-), Man-α-1,6-(GlcNAc-β-1,2-Man-α-1,3-)Man-β-1,4-GlcNAc-β-1, and 4-GlcNAc-Sp5, interacted with the GCL.

fetuin = assay: cell-based or functional assay
[5] = Effect of divalent cations on GCL activity; settings: presence of divalent cations (Mg2+ and Ca2+)
Procedure: (§2) The thermal stability of GCL was measured at different temperatures (ranging from 20 to 90° C.). The GCL activities were not affected until the temperature reached 30° C. […] FIG. 5 is a graph for analyzing a change in degree of activity of CGL according to divalent cations added.

equine red blood cells = assay: Hemagglutination assay, equine red blood cells; type: cell-based, horse
Procedure: (§3) For a hemagglutination assay, horse and sheep blood was purchased (Hanil Comed, Korea). The blood was washed with phosphate buffered saline (PBS, pH 7.3) until a red color of a supernatant disappeared. Each of red blood cells was prepared into a 4% suspension in PBS. The sample was serially diluted in a 96-well U-bottom plate, and a 4% suspension of red blood cells was then added to each well. The sample was kept at room temperature for 30 minutes, and then confirmed for agglutination activities.

ovine red blood cells = assay: Hemagglutination assay, ovine red blood cells; type: cell-based, sheep; settings: 4% suspension, room temperature, 30 minutes
Procedure: as §3

[6] = Thermal stability of GCL activity; type: physicochemical
Procedure: as §2

[7] = 4% suspension, room temperature, 30 minutes

## Nc1nc2c(ncn2COCCO)c(=O)[nH]1 [Acyclovir]
[1]
  Selective index HSV1 (F): >192
[1]; Human alphaherpesvirus 1, footnote: concentration, μM
  EC50: 0.52 µM
[2]
  Selective index HSV2 (MS): >35
[2]; Human alphaherpesvirus 2, footnote: concentration, μM
  EC50: 2.87 µM
In vitro
  CC50: > 100 µg/mL

## O=C[C@@H](O)[C@@H](O)[C@H](O)[C@H](O)CO [D-mannose]
GCL [3]
  Concentration inhibiting haemagglutination activity of GCL: 125 mM

## CN[C@@H]1[C@@H](O)[C@@H](O[C@@H]2[C@@H](O)[C@H](O[C@H]3OC(CN)=CC[C@H]3N)[C@@H](N)C[C@H]2N)OC[C@]1(C)O [G0056, Sisomicin Sulfate]
GCL [4]
  RFU (Normalized) GCL: 1,583 ± 177 RFU

## O=C(CO)[C@@H](O)[C@H](O)[C@H](O)CO [fructose]
GCL [3]
  Concentration inhibiting haemagglutination activity of GCL: 250 mM

## D-cellose-β-Sp1 [G0087]
GCL [4]
  RFU (Normalized) GCL: 1,165 ± 82 RFU

## Gal-α-1,4-Gal-β-1,4-Glc-β-Sp [G0018]
GCL [4]
  RFU (Normalized) GCL: 1,124 ± 47 RFU

## Gal-β-1,4-Glc-Sp [H0400]
GCL [4]
  RFU (Normalized) GCL: 1,044 ± 110 RFU

## Gal-β-1,4-Glc-β-Sp [G0016]
GCL [4]
  RFU (Normalized) GCL: 1,260 ± 126 RFU

## Glc-α-1,2-Gal-α-Sp [G0048]
GCL [4]
  RFU (Normalized) GCL: 1,173 ± 110 RFU

## Glc-α-1,4-Glc-β-Sp1 [G0076]
GCL [4]
  RFU (Normalized) GCL: 1,238 ± 28 RFU

## Grateloupia chiangii-derived lectin (GCL)
fetuin
  inhibition of haemagglutination activity of GCL (4 haemagglutination activity units, equine red blood cells): 195 µg/mL

## Maltoheptaose-β-Sp1 [G0083]
GCL [4]
  Binding of GCL to glycan: strongly bound
  RFU (Normalized) GCL: 8,132 ± 1,810 RFU

## Maltohexaose-β-Sp1 [G0082]
GCL [4]
  Binding of GCL to glycan: strongly bound
  RFU (Normalized) GCL: 7,524 ± 1,976 RFU

## Maltotetraose-β-Sp1 [G0080]
GCL [4]
  Normalized signal intensity: 2,705
  RFU (Normalized) GCL: 2,577 ± 351 RFU

## Man-α-1,6-(Man-α-1,3-)Man-α-1,6-(Gal-β-1,4-GlcNAc-β-1,2-Man-α-1,3-)Man-β-1,4-GlcNAc-β-1,4-GlcNAc-Sp5 [N-011]
GCL [4]
  RFU (Normalized) GCL: 1148 ± 173 RFU

## Man-α-1,6-(Man-α-1,3-)Man-α-1,6-(GlcNAc-β-1,2-Man-α-1,3-)Man-β-1,4-GlcNAc-β-1,4-GlcNAc-Sp5 [N-010]
GCL [4]
  RFU (Normalized) GCL: 1142 ± 116 RFU

## Man-α-1,6-(Man-α-1,3-)Man-α-1,6-[Gal-β-1,4-(Fuc-α-1,3-)GlcNAc-β-1,2-Man-α-1,3-]Man-β-1,4-GlcNAc-β-1,4-GlcNAc-Sp5 [N-014]
GCL [4]
  RFU (Normalized) GCL: 1129 ± 151 RFU

## dextran sulfate 8000
[1]
  Antiviral activity (EC50) HSV1 (F): 15.54 µg/mL
[2]
  Antiviral activity (EC50) HSV2 (MS): 4.52 µg/mL

## pentosan polysulfate [Penosan polysulfate]
[1]
  Antiviral activity (EC50) HSV1 (F): 4.77 µg/mL
[2]
  Antiviral activity (EC50) HSV2 (MS): 2.10 µg/mL
In vitro
  Toxicity CC50: >100 µg/mL

## α-Man-Sp [G0003]
GCL [4]
  Normalized signal intensity: 2,194
  RFU (Normalized) GCL: 2,093 ± 294 RFU

## β-Gal-Sp [G0002]
GCL [4]
  Normalized signal intensity: 2,269
  RFU (Normalized) GCL: 2,165 ± 237 RFU

## β-Glc-Sp [G0001]
GCL [4]
  Normalized signal intensity: 2,579
  RFU (Normalized) GCL: 2,273 ± 544 RFU

## β-GlcNAc-Sp [G0006]
GCL [4]
  RFU (Normalized) GCL: 1,104 ± 133 RFU

B1: fetuin (protein, UniProt P12763 19-359, looked up)
Alpha-2-HS-glycoprotein: IPLDPVAGYKEPACDDPDTEQAALAAVDYINKHLPRGYKHTLNQIDSVKVWPRRPTGEVYDIEIDTLETTCHVLDPTPLANCSVRQQTQHAVEGDCDIHVLKQDGQFSVLFTKCDSSPDSAEDVRKLCPDCPLLAPLNDSRVVHAVEVALATFNAESNGSYLQLVEISRAQFVPLPVSVSVEFAVAATDCIAKEVVDPTKCNLLAEKQYGFCKGSVIQKALGGEDVRVTCTLFQTQPVIPQPQPDGAEAEAPSAVPDAAGPTPSAAGPPVASVVVGPSVVAVPLPLHRAHYDLRHTFSGVASVESSSGEAFHVGKTPIVGQPSIPGGPVRLCPGRIRYFKI
GCL [3]
  Concentration inhibiting haemagglutination activity of GCL: 195 µg/mL

B2: GCL: lectin protein purified from red alga Grateloupia chiangii by D-mannose affinity chromatography, SEQ ID NO: 1, about 25 kDa (protein)
chain: MVVSNRLVSGESLHRGQHIISSDQHFMLVHQYDGNVVLYDVAGSGSGKPLWSTNTYGSHTTVFKMQEDSNLVLYATGGKPIWASDTHGSGGRFLEMQNDGNLVVYTDVGKPKWASDTHQGIAPRSEISVNQVLRIREGLHSANKRNELILQNDGNLVLSKNGSTAWSSGTAGTGANVLVLQIDGNLVLYNDTKSVWASGSMNKGGRTAVMQDDGNFVLYAEGGKPVWATNT
modifications: GLC
[5]
  Change in activity by divalent cations: not highly affected
[1]
  Antiviral activity (EC50) HSV1 (F): 0.18 µg/mL
Equine red blood cells; [7]
  Agglutination of equine red blood cells: agglutinated
  Minimal concentration for agglutination of equine red blood cells: 0.8 µg/mL
Equine red blood cells; hemagglutination titer per mg protein
  Specific activity (Titer/mg): 51,200 Titer/mg
Equine red blood cells; hemagglutination titer, purification step from 30 g sample
  Total activity (Titer): 33,280 Titer
[2]
  Antiviral activity (EC50) HSV2 (MS): 0.036 µg/mL
In vitro
  Toxicity CC50: >5 µg/mL
Ovine red blood cells
  Agglutination of ovine red blood cells: did not agglutinate
[6]; at 40° C.
  GCL activity according to temperature: Half of the activities were lost
[6]; heated at 90° C. for 30 minutes
  Initial activities maintained: approximately 15%
[6]; until the temperature reached 30° C.
  GCL activity according to temperature: not affected
